Assay results: US20230330251A1, “METHODS FOR TREATING CANCERS WITH ANTIBODY DRUG CONJUGATES (ADC) THAT BIND TO 191P4D12 PROTEINS” (AGENSYS, INC., priority 2020, published 2023)

Experiments:
191P4D12 = target: T1, 191P4D12 (Homo sapiens, UniProt Q96NY8)
T1 sequence (Q96NY8 32-510): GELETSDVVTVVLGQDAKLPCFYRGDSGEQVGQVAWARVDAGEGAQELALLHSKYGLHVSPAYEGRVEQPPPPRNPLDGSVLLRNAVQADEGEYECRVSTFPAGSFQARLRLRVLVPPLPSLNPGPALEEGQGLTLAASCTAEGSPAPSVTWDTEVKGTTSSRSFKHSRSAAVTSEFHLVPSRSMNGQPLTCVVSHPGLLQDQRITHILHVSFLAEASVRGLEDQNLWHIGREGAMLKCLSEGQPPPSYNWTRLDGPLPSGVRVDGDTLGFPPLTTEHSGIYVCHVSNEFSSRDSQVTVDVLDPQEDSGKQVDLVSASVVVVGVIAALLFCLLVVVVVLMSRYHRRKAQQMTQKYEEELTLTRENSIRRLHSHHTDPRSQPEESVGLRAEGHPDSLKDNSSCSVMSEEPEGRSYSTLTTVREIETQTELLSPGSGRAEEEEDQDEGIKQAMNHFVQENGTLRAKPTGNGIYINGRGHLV
Excerpt: As described above and in U.S. Pat. No. 8,637,642, AGS-22M6E is an ADC derived from a murine hybridoma cell line.

[1] = Phase 1 study of EV: pharmacokinetics; assay type: in vivo, human
Excerpt: Based on pharmacokinetic data from the phase 1 study, the half-life of EV is ˜1-2 days. […] Minimal (<50%) intra-cycle accumulation of MMAE was observed. It is anticipated that the dosing schedule in the study will maintain ADC exposures over each 28-day cycle, contributing to a favorable balance of activity and safety, as observed in the phase 1 trial.

[2] = test system: patients with previously treated locally advanced or metastatic urothelial carcinoma (la/mUC) with poor prognostic factors; test: EV-301 subgroup analyses of OS, PFS and ORR incl. hard-to-treat subgroups (age ≥65 years, liver metastasis, primary upper tract disease, CPI nonresponse); assay type: in vivo, human; conditions: for ORR, EV vs SC Absolute Difference / Overall response rate (ORR), % / Overall response rate (ORR), n/N: Response-Evaluable Population
Procedure: Using FAS, the analysis for OS, PFS1 and ORR were repeated by ECOG PS (0 vs 1), regions of the world, and liver metastasis respectively.
In addition, subgroup analyses were conducted for selected endpoints to determine whether the treatment effect is consistent.
Subgroup analyses were prespecified for the primary endpoint of OS and secondary endpoints of investigator-assessed progression-free survival (PFS) and overall response rate (ORR) per RECIST v1.1. Kaplan-Meier analyses compared OS and PFS between treatments for selected hard-to-treat subgroups as follows: age ≥65 years, presence of liver metastasis, primary upper tract disease, and checkpoint inhibitor (CPI) nonresponse. ORR and safety were also evaluated within subgroups. The Cox proportional hazards model was used to estimate hazard ratios. The Cochran-Mantel-Haenszel test was used to compare response and disease control rates between groups.

[3] = test system: subjects with previously treated locally advanced or metastatic urothelial cancer; test: EV-301: duration of response (DOR) per RECIST V1.1; assay type: in vivo, human
Excerpt: Duration of Response (DOR) is defined as the time from the date of the first response CR/PR per RECIST V1.1 (whichever is first recorded) that is subsequently confirmed as assessed by investigator to the date of radiological progression or date of death for subjects who achieved CR or PR. If a subject has not progressed or died, the subject was censored at the date of last radiological assessment or at the date of first CR/PR if no other post-baseline radiological assessment is available after the first CR/PR. The median DOR was estimated using the Kaplan-Meier method and is reported along with the corresponding 95% confidence interval by treatment arm.

[4] = test system: subjects with previously treated locally advanced or metastatic urothelial cancer; test: EV-301: progression free survival (PFS1) per RECIST V1.1, investigator assessment; assay type: in vivo, human
Excerpt: For each subject, PFS1 is defined as the time from the date of randomization until the date of radiological disease progression (per RECIST V1.1), or until death due to any cause. If a subject has neither progressed nor died, the subject was censored at the date of last radiological assessment. Subjects who receive any further anticancer therapy for the disease before radiological progression were censored at the date of the last radiological assessment before the anticancer therapy started.
The efficacy endpoint of PFS1 was analyzed using the log-rank test stratified by ECOG PS (0 vs 1), regions of the world (Western EU, US or the rest of world) and liver metastasis (yes or no). Randomized treatment and the strata used for randomization was used for the analysis. In addition, stratified Cox proportional hazard model was used to estimate the hazard ratio and the corresponding 95% confidence interval. The median PFS1 was estimated using the Kaplan-Meier method and reported along with the corresponding 95% confidence interval by treatment arm.
The primary analysis was performed using the FAS. Additional sensitivity analyses for PFS1 was also be performed. Details are specified in the SAP.

[5] = patients with confirmed complete or partial response

enfortumab vedotin
comparability between enfortumab vedotin and AGS-22M6E (191P4D12): confirmed
intra-cycle accumulation of ADC ([1]; dosing on Days 1, 8 and 15 of every 28-day cycle, any dose level): < 30%
half-life ([1]; phase 1 study): 24 to 48 h
Median OS ([2]; Age ≥65 yrs): 14.32 mo
Median PFS ([2]; Age ≥65 yrs): 5.65 mo
OS, EV vs SC HR ([2]; Age ≥65 yrs): 0.745
Overall survival (OS) Events, % ([2]; Age ≥65 yrs): (44) %
Overall survival (OS) Events, n/N ([2]; Age ≥65 yrs): 85/193
PFS, EV vs SC HR ([2]; Age ≥65 yrs): 0.616
Progression-free survival (PFS) Events, % ([2]; Age ≥65 yrs): (65) %
Progression-free survival (PFS) Events, n/N ([2]; Age ≥65 yrs): 126/193
ORR, EV vs SC Absolute Difference ([2]; Age ≥65 yrs): 20.9%
Overall response rate (ORR), % ([2]; Age ≥65 yrs): 40.8%
Overall response rate (ORR), n/N ([2]; Age ≥65 yrs): 75/184
Median OS ([2]; CPI non-responder): 11.63 mo
Median PFS ([2]; CPI non-responder): 5.42 mo
OS, EV vs SC HR ([2]; CPI non-responder): 0.757
Overall survival (OS) Events, % ([2]; CPI non-responder): (48) %
Overall survival (OS) Events, n/N ([2]; CPI non-responder): 100/207
PFS, EV vs SC HR ([2]; CPI non-responder): 0.697
Progression-free survival (PFS) Events, % ([2]; CPI non-responder): (71) %
Progression-free survival (PFS) Events, n/N ([2]; CPI non-responder): 146/207
ORR, EV vs SC Absolute Difference ([2]; CPI non-responder): 22.3%
Overall response rate (ORR), % ([2]; CPI non-responder): 39.7%
Overall response rate (ORR), n/N ([2]; CPI non-responder): 79/199
Median OS ([2]; Presence of Liver metastasis): 9.63 mo
Median PFS ([2]; Presence of Liver metastasis): 4.14 mo
OS, EV vs SC HR ([2]; Presence of Liver metastasis): 0.660
Overall survival (OS) Events, % ([2]; Presence of Liver metastasis): (57) %
Overall survival (OS) Events, n/N ([2]; Presence of Liver metastasis): 53/93
PFS, EV vs SC HR ([2]; Presence of Liver metastasis): 0.597
Progression-free survival (PFS) Events, % ([2]; Presence of Liver metastasis): (76) %
Progression-free survival (PFS) Events, n/N ([2]; Presence of Liver metastasis): 71/93
ORR, EV vs SC Absolute Difference ([2]; Presence of Liver metastasis): 24.7%
Overall response rate (ORR), % ([2]; Presence of Liver metastasis): 35.5%
Overall response rate (ORR), n/N ([2]; Presence of Liver metastasis): 33/93
Median OS ([2]; Primary upper tract disease): 12.62 mo
Median PFS ([2]; Primary upper tract disease): 5.62 mo
OS, EV vs SC HR ([2]; Primary upper tract disease): 0.848
Overall survival (OS) Events, % ([2]; Primary upper tract disease): (45) %
Overall survival (OS) Events, n/N ([2]; Primary upper tract disease): 44/98
PFS, EV vs SC HR ([2]; Primary upper tract disease): 0.716
Progression-free survival (PFS) Events, % ([2]; Primary upper tract disease): (64) %
Progression-free survival (PFS) Events, n/N ([2]; Primary upper tract disease): 63/98
ORR, EV vs SC Absolute Difference ([2]; Primary upper tract disease): 24.8%
Overall response rate (ORR), % ([2]; Primary upper tract disease): 43.9%
Overall response rate (ORR), n/N ([2]; Primary upper tract disease): 43/98
ORR in hard-to-treat subgroups, EV compared to SC ([2]; across all subgroups): higher
PFS in hard-to-treat subgroups, EV compared to SC ([2]; across all subgroups): longer
OS in hard-to-treat subgroups, EV vs SC ([2]; liver metastasis, CPI nonresponsive, primary upper tract disease, poor prognostic factors, listed as EV): consistently longer
progression-free survival benefit in subgroup analyses ([2]; prespecified key subgroups, intention-to-treat population): present across multiple subgroups
median duration of response ([3]; patients who had a complete or partial response): 7.39 months
Duration of Response (DOR), Events, % [3, 5]: (53.8%)
Duration of Response, At 6 months [3, 5]: 53.8%
Duration of Response, At 12 months [3, 5]: 27.7%
Median of DOR [3, 5]: 7.39 Months
Median PFS ([4]; All): 5.55 mo
PFS, EV vs SC HR ([4]; All): 0.615
Progression-free survival (PFS) Events, % ([4]; All): (66.8) %
Progression-free survival (PFS) Events, n/N ([4]; All): 201/301
Median PFS ([4]; FAS, investigator assessment): 5.55 Months
PFS Events, % ([4]; FAS, investigator assessment): (66.8%)
reduction in risk of disease progression or death ([4]; PADCEV vs chemotherapy): 39%
